Columns and labels:
[1] = biological target: Aldo-keto reductase family 1 member B1 (Rattus norvegicus, UniProt P07943); experiment: biochemical; assay type: tissue-based, Lens of camera-type eye;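 note: inhibition of aldose reductase enzyme activity, measured with DL-glyceraldehyde as the substrate; in other assays of this panel Not Active means under 50% inhibition at 10 µM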
[2] = biological target: T1, Cholecystokinin receptor type A (Homo sapiens, UniProt P32238); assay type: cell membranes, Membrane; details: 1321-n1; note: in other assays of this panel Not Active means under 50% inhibition at 10 µM
T1 sequence (P32238 whole entry): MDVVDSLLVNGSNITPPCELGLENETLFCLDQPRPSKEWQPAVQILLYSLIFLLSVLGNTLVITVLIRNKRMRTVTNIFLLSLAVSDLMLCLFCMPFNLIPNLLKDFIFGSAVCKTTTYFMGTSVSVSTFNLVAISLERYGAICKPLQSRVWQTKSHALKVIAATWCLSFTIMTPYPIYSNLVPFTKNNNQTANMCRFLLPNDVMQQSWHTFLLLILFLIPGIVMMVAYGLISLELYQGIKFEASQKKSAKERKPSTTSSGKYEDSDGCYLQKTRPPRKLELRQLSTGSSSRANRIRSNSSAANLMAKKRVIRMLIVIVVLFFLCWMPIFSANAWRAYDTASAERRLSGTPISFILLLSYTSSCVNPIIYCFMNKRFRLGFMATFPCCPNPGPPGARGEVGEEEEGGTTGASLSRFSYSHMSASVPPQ

[3] = DRUGMATRIX: Glutamate, NMDA, Agonism radioligand binding (ligand: [3H] CGP-39653); assay type: cell membranes, Rattus norvegicus, Wistar, Cerebral cortex, Membrane; details: Not Active = under 50% inhibition at 10 µM
Insulin receptor = Insulin receptor (Rattus norvegicus, UniProt P15127); assay type: cell membranes, Wistar, Liver, Membrane; note: in other assays of this panel Not Active means under 50% inhibition at 10 µM
[4] = biological target: T2, Neuropeptide Y receptor type 2 (Homo sapiens, UniProt P49146); assay type: cell membranes, Membrane; details: kan-ts; note: in other assays of this panel Not Active means under 50% inhibition at 10 µM
T2 sequence (P49146 whole entry): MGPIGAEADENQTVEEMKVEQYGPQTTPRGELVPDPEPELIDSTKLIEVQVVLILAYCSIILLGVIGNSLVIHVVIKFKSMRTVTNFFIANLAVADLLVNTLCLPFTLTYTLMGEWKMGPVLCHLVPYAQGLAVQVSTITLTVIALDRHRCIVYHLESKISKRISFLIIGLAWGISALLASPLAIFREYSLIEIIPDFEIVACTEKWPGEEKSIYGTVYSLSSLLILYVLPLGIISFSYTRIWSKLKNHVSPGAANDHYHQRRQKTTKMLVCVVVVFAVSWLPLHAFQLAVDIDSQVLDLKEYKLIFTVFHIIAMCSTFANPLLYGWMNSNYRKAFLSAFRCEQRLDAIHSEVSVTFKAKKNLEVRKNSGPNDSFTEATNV

[5] = biological target: T3, Nitric oxide synthase, inducible (Mus musculus, UniProt P29477); set-up: species or system Escherichia coli
T3 sequence (P29477 whole entry): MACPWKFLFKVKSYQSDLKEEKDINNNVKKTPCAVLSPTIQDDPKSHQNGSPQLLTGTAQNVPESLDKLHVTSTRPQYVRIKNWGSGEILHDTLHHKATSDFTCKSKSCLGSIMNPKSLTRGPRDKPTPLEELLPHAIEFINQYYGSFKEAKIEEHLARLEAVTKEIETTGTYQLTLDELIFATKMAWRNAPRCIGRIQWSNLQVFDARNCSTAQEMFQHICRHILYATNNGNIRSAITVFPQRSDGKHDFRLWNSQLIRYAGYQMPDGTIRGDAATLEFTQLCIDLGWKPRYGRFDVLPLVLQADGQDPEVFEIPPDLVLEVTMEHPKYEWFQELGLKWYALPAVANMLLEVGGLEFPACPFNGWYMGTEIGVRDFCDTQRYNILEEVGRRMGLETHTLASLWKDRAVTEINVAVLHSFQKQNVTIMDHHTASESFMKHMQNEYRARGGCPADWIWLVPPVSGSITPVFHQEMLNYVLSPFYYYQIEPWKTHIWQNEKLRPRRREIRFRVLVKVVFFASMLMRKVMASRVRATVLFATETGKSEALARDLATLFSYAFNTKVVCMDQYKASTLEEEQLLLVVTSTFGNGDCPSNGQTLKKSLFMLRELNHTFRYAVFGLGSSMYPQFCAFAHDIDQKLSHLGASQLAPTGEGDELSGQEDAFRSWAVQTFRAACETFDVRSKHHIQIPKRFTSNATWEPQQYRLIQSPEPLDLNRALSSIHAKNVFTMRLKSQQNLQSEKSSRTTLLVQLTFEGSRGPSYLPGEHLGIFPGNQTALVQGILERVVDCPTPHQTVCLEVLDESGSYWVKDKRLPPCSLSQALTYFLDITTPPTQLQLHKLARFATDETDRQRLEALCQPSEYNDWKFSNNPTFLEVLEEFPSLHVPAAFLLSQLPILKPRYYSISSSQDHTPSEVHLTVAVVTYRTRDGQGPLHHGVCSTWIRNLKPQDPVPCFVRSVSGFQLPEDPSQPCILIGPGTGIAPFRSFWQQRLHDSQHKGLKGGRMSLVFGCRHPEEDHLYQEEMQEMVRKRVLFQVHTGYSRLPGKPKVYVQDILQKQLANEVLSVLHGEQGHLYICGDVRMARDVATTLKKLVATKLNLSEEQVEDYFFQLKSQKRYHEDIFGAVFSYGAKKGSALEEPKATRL

[6] = biological target: Delta-type opioid receptor (Homo sapiens, UniProt P41143); assay type: cell membranes, HEK293, Membrane; details: hek293; note: in other assays of this panel Not Active means under 50% inhibition at 10 µM
Cathepsin G = biological target: T4, Cathepsin G (Homo sapiens, UniProt P08311); experiment: biochemical; assay type: tissue-based, Neutrophil; details: neutrophil
T4 sequence (P08311 whole entry): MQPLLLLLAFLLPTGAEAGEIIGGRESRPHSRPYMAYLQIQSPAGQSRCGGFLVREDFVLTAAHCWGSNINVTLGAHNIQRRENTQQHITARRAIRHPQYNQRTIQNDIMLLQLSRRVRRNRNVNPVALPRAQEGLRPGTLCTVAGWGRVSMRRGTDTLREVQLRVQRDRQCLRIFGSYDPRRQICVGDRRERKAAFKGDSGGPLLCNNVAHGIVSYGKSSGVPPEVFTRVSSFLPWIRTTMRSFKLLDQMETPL

[7] = biological target: Protein kinase C alpha type (Homo sapiens, UniProt P17252); assay type: cell-based; details: sf9

Chain of Delta-type opioid receptor (P41143 whole entry): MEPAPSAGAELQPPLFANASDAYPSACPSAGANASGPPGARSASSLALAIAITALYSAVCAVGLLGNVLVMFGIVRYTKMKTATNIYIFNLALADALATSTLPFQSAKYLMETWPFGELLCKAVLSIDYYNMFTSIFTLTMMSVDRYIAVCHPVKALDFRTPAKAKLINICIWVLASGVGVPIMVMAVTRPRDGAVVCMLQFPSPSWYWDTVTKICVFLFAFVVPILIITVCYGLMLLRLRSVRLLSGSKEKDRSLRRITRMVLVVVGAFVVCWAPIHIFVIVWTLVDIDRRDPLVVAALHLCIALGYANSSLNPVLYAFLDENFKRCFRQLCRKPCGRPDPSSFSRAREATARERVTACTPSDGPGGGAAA
Chain of Insulin receptor (P15127 27-759 limits assumed): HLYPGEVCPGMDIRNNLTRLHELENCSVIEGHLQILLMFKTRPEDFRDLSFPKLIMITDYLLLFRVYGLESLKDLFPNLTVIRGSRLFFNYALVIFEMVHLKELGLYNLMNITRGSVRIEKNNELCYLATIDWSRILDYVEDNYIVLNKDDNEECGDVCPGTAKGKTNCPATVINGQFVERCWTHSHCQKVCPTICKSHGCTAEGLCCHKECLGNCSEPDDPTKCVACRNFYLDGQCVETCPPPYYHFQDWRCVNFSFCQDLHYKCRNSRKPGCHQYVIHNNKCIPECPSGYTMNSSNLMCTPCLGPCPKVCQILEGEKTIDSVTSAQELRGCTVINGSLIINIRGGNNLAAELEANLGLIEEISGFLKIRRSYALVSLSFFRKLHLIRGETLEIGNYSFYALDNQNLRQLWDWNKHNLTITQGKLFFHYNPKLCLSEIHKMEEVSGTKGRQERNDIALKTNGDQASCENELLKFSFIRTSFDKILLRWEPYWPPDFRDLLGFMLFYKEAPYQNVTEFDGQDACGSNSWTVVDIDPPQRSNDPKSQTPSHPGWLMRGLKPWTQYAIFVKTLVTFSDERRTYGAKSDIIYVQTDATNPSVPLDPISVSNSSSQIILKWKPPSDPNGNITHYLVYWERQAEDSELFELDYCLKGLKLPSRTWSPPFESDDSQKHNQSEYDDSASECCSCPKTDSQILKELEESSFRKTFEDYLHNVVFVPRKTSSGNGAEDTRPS
Chain of Insulin receptor (P15127 764-1383 limits assumed): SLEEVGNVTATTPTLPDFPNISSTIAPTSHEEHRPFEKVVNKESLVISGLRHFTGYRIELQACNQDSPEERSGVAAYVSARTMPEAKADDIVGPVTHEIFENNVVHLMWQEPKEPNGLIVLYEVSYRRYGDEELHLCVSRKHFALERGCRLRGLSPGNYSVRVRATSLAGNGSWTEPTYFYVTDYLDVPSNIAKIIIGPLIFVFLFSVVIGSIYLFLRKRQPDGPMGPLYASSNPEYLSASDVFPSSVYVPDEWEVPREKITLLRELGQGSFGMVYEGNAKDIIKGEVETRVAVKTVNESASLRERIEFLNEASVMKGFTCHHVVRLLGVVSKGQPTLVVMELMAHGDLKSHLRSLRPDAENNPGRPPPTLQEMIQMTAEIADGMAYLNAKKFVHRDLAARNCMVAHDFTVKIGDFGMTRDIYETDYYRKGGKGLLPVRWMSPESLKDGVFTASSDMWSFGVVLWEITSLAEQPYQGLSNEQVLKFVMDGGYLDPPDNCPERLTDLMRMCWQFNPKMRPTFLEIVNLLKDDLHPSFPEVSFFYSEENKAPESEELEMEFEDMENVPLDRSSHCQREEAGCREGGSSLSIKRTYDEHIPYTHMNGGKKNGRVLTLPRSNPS

Molecule	IC50 [1]	IC50 [2]	IC50 [3]	Ki [3]	IC50 (Insulin receptor)	IC50 [4]	IC50 [5]	IC50 [6]	IC50 (Cathepsin G)	IC50 [7]	IC50 ([1]; read-out: IC50) [µM]	Ki [1]	Ki [2]	Ki (Insulin receptor)	Ki [4]	Ki [5]	Ki [6]	Ki (Cathepsin G)	Ki [7]
CC[C@@]1(O)C(=O)OCc2c1cc1n(c2=O)Cc2cc3c(CN(C)C)c(O)ccc3nc2-1 [TOPOTECAN]	Not Active	Not Active	Not Active	Not Active	Not Active	Not Active	Not Active	Not Active	Not Active	Not Active	–	–	–	–	–	–	–	–	–
CC#C[C@]1(O)CC[C@H]2[C@@H]3CCC4=CC(=O)CCC4=C3[C@@H](c3ccc(N(C)C)cc3)C[C@@]21C [MIFEPRISTONE]	Not Active	Not Active	Not Active	Not Active	Not Active	Not Active	Not Active	Not Active	Not Active	Not Active	–	–	–	–	–	–	–	–	–
Cc1cnc(NC(=O)C2=C(O)c3ccccc3S(=O)(=O)N2C)s1 [MELOXICAM]	Not Active	Not Active	Not Active	Not Active	Not Active	Not Active	Not Active	Not Active	Not Active	Not Active	–	–	–	–	–	–	–	–	–
O=[As][O-].[Na+] [SODIUM ARSENITE]	Not Active	Not Active	Not Active	Not Active	Not Active	Not Active	Not Active	Not Active	Not Active	Not Active	–	–	–	–	–	–	–	–	–
Cc1cccc(C)c1NC(=O)C(C)N (stereo not drawn) [TOCAINIDE]	Not Active	Not Active	Not Active	Not Active	Not Active	Not Active	Not Active	Not Active	Not Active	Not Active	–	–	–	–	–	–	–	–	–
COC(=O)Nc1nc2ccc(C(=O)c3ccccc3)cc2[nH]1 [MEBENDAZOLE]	Not Active	Not Active	Not Active	Not Active	Not Active	Not Active	Not Active	Not Active	Not Active	Not Active	–	–	–	–	–	–	–	–	–
CCOC(=O)C1=C(C)NC(C)=C(C(=O)OCC)C1c1ccccc1/C=C/C(=O)OC(C)(C)C [LACIDIPINE]	Not Active	Not Active	Not Active	Not Active	Not Active	Not Active	Not Active	Not Active	Not Active	Not Active	–	–	–	–	–	–	–	–	–
CC[C@H](C)[C@@H](CO[C@@H](Cc1ccccc1)C(=O)N[C@@H](CCS(C)(=O)=O)C(=O)OC(C)C)NC[C@@H](N)CS	Not Active	Not Active	Not Active	Not Active	Not Active	Not Active	Not Active	Not Active	Not Active	Not Active	–	–	–	–	–	–	–	–	–
O=C(c1ccccc1)c1ccc2n1CCC2C(=O)O (stereo not drawn) [KETOROLAC]	–	Not Active	Not Active	Not Active	Not Active	Not Active	Not Active	Not Active	Not Active	Not Active	6.11	–	–	–	–	–	–	–	–
O=C(O)c1cc(/N=N/c2ccc(S(=O)(=O)Nc3ccccn3)cc2)ccc1O [SULFASALAZINE]	–	Not Active	Not Active	Not Active	Not Active	Not Active	Not Active	Not Active	Not Active	Not Active	17	–	–	–	–	–	–	–	–
CC1(C)[C@H](C(=O)O)N2C(=O)C[C@H]2S1(=O)=O [SULBACTAM]	Not Active	Not Active	Not Active	Not Active	Not Active	Not Active	Not Active	Not Active	Not Active	Not Active	–	–	–	–	–	–	–	–	–
C1CCN2C[C@@H]3C[C@@H](CN4CCCC[C@@H]34)[C@H]2C1 [SPARTEINE]	Not Active	Not Active	Not Active	Not Active	Not Active	Not Active	Not Active	Not Active	Not Active	Not Active	–	–	–	–	–	–	–	–	–
LEAD(IV) ACETATE	Not Active	Not Active	Not Active	Not Active	Not Active	Not Active	Not Active	Not Active	Not Active	Not Active	–	Not Active	Not Active	Not Active	Not Active	Not Active	Not Active	Not Active	Not Active
CC(O)C(=O)O (stereo not drawn) [LACTIC ACID]	Not Active	Not Active	Not Active	Not Active	Not Active	Not Active	Not Active	Not Active	Not Active	Not Active	–	–	–	–	–	–	–	–	–

Source: ChEMBL document CHEMBL1909046, “DrugMatrix in vitro pharmacology data”
